# Literature values in US20250345356A1, “TIRAPAZAMINE COMPOSITIONS AND METHODS” (priority 2024, published 2025).
# Legend:
# [1] = cited from earlier work
# [2] = cited from earlier work; remark: listed apart in the source
# advanced NSCLC = details: cited from earlier work
structure (smiles),measurement,setting,value
"Nc1n[n+]([O-])c2ccccc2[n+]1[O-] [tirapazamine, 3-amino-1,2,4-benotriazine-1,4-di-N-oxide]",tumor responses,[1]; 36-450 mg/m^2 i.v.,no tumor responses were seen
same,AUC of tirapazamine at which ototoxicity was not observed,"[1]; human, in vivo, 330 mg/m2",≤ 1252 µg·min/mL
same,Maximally Tolerated Dose (MTD),"[1]; human, in vivo, iv",390 mg/m^2
same,dose-limiting toxicities,"[1]; human, in vivo, iv",reversible deafness and tinnitus
same,duration of cramps,"[1]; human, in vivo, iv",1 to 14 days
same,mean Vdss,"[1]; human, in vivo, iv",39 ± 12.5 L
same,mean clearance (±SD),"[1]; human, in vivo, iv",624.2 ± 157 mL/min
same,onset of muscle cramps after the start of infusion,"[1]; human, in vivo, iv",2.4 to 24 h
same,increase in AUC(0-inf),"[1]; human, in vivo",~19 fold
same,necrosis of the left lobe of the liver (histopathology),"[2]; 3 mg/kg and 6 mg/kg i.v. with transient left HAL, Day 1",1%
same,survival after 1 and 7 days,[2]; 3 mg/kg or 6 mg/kg with left HAL,survived
same,serum alanine transaminase (ALT) level,"[2]; Day 1, dose-dependent",elevated on Day 1
same,potentially safe doses combined with transient left HAL,[2]; i.v. infusion,≤ 6 mg/kg
same,removed from treatment as a result of toxicity,advanced NSCLC; arm 1 (with tirapazamine 260-330 mg/m^2) vs arm 2,26%
same,patients who developed ≥grade 3 febrile neutropenia,advanced NSCLC; arm 1 vs arm 2,Twenty
same,survival compared with paclitaxel and carboplatin alone,advanced NSCLC; tirapazamine added to paclitaxel and carboplatin,does not result in improved survival
